Assay results: ChEMBL document CHEMBL1909046, “DrugMatrix in vitro pharmacology data”

How the values were obtained:
[1] = target: T1, Alpha-1A adrenergic receptor (Rattus norvegicus, UniProt P43140); test: DRUGMATRIX: Alpha-1A adrenergic receptor radioligand binding (ligand: prazosin); type: cell membranes, Wistar, Submaxillary gland, Membrane; conditions: Not Active = under 50% inhibition at 10 µM; for Ki: read-out: Ki
T1 sequence (P43140 whole entry): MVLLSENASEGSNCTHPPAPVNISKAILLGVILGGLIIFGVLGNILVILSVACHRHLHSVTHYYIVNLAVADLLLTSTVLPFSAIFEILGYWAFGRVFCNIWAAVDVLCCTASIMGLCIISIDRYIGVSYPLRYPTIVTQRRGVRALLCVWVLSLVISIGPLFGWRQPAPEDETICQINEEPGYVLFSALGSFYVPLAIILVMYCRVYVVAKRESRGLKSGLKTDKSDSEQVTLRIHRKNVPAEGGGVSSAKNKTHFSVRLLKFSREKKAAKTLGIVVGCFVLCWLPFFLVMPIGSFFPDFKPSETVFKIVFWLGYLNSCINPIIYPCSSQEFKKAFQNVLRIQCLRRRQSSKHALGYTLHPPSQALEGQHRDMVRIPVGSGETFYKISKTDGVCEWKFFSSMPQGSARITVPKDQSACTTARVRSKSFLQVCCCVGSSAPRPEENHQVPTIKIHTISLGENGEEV

[2] = target: 5-hydroxytryptamine receptor 6 (Homo sapiens, UniProt P50406); type: cell membranes, HeLa, Membrane; conditions: for Ki: read-out: Ki; for all read-outs here: in other assays of this panel Not Active means under 50% inhibition at 10 µM
Vasopressin V1a receptor = Vasopressin V1a receptor (Homo sapiens, UniProt P37288); type: cell membranes, Membrane; conditions: hek293; note: in other assays of this panel Not Active means under 50% inhibition at 10 µM
Nitric oxide synthase 1 = Nitric oxide synthase 1 (Rattus norvegicus, UniProt P29476); type: tissue-based, Cerebellum; note: in other assays of this panel Not Active means under 50% inhibition at 10 µM
[3] = target: T2, Vasoactive intestinal polypeptide receptor 1 (Homo sapiens, UniProt P32241); type: cell membranes, Membrane; conditions: ht-29; note: in other assays of this panel Not Active means under 50% inhibition at 10 µM
T2 sequence (P32241 whole entry): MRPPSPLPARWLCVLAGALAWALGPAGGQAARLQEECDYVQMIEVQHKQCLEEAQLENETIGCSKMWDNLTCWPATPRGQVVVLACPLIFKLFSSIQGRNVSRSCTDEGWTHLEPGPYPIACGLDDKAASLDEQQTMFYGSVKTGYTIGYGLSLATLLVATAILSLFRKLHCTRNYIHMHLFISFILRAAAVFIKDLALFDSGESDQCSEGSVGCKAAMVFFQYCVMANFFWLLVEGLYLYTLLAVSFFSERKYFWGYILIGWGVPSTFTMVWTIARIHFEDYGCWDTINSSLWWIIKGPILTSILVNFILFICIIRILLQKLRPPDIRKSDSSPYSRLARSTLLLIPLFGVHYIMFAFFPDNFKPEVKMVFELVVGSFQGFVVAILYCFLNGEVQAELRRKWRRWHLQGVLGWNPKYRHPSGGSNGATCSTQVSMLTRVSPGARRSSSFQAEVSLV

[4] = target: Mitogen-activated protein kinase 3 (Homo sapiens, UniProt P27361); test: DRUGMATRIX: Protein Serine/Threonine Kinase, ERK1 enzyme inhibition (substrate: Myelin Basic Protein); design: species or system Escherichia coli; conditions: Not Active = under 50% inhibition at 10 µM
Mitogen-activated protein kinase 3, sequence (P27361 whole entry): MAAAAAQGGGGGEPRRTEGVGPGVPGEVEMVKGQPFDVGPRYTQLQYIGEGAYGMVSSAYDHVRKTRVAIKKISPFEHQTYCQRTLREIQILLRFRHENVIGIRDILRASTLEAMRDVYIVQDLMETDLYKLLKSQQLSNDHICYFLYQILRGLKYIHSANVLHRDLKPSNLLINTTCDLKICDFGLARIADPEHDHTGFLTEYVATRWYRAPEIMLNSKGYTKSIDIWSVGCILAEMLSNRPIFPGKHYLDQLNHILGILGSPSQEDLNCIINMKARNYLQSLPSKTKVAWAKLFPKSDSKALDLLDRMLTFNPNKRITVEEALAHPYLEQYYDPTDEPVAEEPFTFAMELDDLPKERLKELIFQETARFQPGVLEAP

5-hydroxytryptamine receptor 6, sequence (P50406 whole entry): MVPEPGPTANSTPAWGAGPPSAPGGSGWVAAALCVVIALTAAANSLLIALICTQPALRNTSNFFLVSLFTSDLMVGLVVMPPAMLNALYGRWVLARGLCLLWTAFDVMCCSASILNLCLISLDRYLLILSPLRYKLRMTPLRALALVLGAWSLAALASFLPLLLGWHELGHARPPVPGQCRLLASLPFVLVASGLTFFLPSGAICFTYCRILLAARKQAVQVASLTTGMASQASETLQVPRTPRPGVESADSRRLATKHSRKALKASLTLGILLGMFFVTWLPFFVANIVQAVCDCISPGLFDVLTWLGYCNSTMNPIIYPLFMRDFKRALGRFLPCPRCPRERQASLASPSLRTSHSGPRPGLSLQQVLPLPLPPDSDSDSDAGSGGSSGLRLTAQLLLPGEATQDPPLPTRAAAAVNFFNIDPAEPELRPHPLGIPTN
Nitric oxide synthase 1, sequence (P29476 whole entry): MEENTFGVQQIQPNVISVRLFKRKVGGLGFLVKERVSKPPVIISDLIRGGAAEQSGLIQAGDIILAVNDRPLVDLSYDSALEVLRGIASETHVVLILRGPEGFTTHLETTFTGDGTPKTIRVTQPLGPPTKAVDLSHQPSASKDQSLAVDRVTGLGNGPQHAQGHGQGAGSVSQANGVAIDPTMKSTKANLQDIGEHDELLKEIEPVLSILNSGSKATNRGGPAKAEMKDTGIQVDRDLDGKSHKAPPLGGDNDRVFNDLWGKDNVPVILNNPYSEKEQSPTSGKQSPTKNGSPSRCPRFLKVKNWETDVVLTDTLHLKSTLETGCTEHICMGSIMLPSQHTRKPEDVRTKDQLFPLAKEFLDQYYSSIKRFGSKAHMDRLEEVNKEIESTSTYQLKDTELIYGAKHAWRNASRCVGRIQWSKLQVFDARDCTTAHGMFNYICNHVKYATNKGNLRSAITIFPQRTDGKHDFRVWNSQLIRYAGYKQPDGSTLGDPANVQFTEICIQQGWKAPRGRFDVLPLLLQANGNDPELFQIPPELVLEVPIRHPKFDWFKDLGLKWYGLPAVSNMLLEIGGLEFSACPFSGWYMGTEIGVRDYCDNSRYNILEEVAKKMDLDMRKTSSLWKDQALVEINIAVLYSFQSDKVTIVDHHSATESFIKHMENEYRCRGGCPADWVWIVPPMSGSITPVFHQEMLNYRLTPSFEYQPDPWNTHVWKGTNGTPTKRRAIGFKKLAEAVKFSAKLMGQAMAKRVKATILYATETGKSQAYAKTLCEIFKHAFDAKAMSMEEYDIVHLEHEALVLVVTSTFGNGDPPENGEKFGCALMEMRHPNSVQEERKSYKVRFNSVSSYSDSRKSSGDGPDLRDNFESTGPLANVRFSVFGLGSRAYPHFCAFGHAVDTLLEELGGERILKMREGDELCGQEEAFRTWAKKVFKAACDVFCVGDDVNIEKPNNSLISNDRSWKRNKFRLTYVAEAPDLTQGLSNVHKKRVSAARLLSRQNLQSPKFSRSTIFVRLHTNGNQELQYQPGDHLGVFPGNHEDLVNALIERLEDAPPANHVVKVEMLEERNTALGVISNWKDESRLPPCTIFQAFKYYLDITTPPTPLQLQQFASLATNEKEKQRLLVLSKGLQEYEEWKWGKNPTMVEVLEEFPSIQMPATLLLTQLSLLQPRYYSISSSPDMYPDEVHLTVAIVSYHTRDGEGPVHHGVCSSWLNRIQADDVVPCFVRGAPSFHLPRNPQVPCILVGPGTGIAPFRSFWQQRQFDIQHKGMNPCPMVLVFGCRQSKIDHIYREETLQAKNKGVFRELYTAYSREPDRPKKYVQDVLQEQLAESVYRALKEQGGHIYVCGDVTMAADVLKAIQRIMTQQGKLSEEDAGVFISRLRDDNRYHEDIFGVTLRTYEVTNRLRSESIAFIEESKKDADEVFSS
Vasopressin V1a receptor, sequence (P37288 whole entry): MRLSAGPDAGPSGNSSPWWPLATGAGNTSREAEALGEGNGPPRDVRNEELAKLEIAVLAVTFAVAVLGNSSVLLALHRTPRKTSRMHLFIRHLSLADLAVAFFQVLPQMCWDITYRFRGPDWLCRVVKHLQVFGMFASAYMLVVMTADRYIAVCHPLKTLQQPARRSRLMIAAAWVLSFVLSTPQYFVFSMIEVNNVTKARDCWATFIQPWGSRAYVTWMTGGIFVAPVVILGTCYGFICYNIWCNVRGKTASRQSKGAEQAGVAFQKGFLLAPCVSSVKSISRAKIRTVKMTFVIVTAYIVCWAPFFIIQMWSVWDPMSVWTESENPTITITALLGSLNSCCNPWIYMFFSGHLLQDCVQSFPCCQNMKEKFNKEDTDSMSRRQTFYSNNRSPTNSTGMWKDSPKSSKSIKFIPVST

| Structure (SMILES) | IC50 [1] | IC50 ([2]; hela) | IC50 (Vasopressin V1a receptor) | IC50 (Nitric oxide synthase 1) | IC50 [3] | IC50 ([4]; read-out: IC50) [nM] | IC50 [4] | IC50 ([1]; read-out: IC50) [nM] | Ki [1] [nM] | IC50 ([2]; read-out: IC50) [nM] | Ki [2] [nM] |
| --- | --- | --- | --- | --- | --- | --- | --- | --- | --- | --- | --- |
| Cc1c(C)c2c(c(C)c1O)CCC(C)(CN1CCN(c3cc(N4CCCC4)nc(N4CCCC4)n3)CC1)O2 (stereo not given) | Not Active | Not Active | Not Active | Not Active | Not Active | 4960 | – | – | – | – | – |
| COc1ccc(CCN(C)CCCC(C#N)(c2ccc(OC)c(OC)c2)C(C)C)cc1OC (stereo not given) | – | Not Active | Not Active | Not Active | Not Active | – | Not Active | – | – | – | – |
| CC(C)Cc1ccc([C@@H](C)C(=O)O)cc1 [(R)-IBUPROPHEN] | Not Active | Not Active | Not Active | Not Active | Not Active | – | Not Active | – | – | – | – |
| CN(C)CCOC(c1ccccc1)c1ccccc1 [DIPHENHYDRAMINE] | Not Active | Not Active | Not Active | Not Active | Not Active | – | Not Active | – | – | – | – |
| Clc1ccc(COC(Cn2ccnc2)c2ccc(Cl)cc2Cl)cc1 (stereo not given) [ECONAZOLE] | – | – | Not Active | Not Active | Not Active | – | Not Active | 21200 | 8570 | 10900 | 5060 |
| CCN(CC)CCOc1ccc(/C(=C(/Cl)c2ccccc2)c2ccccc2)cc1 [ENCLOMIPHENE] | Not Active | – | Not Active | Not Active | Not Active | – | Not Active | – | – | 1520 | 707 |
| Fc1ccc(C(c2ccc(F)cc2)N2CCN(C/C=C/c3ccccc3)CC2)cc1 [FLUNARIZINE] | – | Not Active | Not Active | Not Active | Not Active | – | Not Active | 1090 | 440 | – | – |
| CNCCC(Oc1ccc(C(F)(F)F)cc1)c1ccccc1 (stereo not given) [FLUOXETINE] | Not Active | – | Not Active | Not Active | Not Active | – | Not Active | – | – | – | – |
| Cc1ccc(NC(=O)c2ccc(CN3CCN(C)CC3)cc2)cc1Nc1nccc(-c2cccnc2)n1 [IMATINIB] | Not Active | Not Active | Not Active | Not Active | Not Active | – | – | – | – | – | – |
| CC(C)Oc1ccc2c(=O)c(-c3ccccc3)coc2c1 [IPRIFLAVONE] | Not Active | Not Active | Not Active | Not Active | Not Active | – | Not Active | – | – | – | – |
| CC(C)NCC(O)c1ccc(O)c(O)c1 (stereo not given) [ISOPROTERENOL] | Not Active | Not Active | Not Active | Not Active | Not Active | – | Not Active | – | – | – | – |
| CNC1(c2ccccc2Cl)CCCCC1=O (stereo not given) [KETAMINE] | Not Active | Not Active | Not Active | Not Active | Not Active | – | Not Active | – | – | – | – |
| N#Cc1ccc(C(c2ccc(C#N)cc2)n2cncn2)cc1 [LETROZOLE] | Not Active | Not Active | Not Active | Not Active | Not Active | – | Not Active | – | – | – | – |
| CCN1CCC[C@H]1CNC(=O)c1cc(S(N)(=O)=O)ccc1OC [LEVOSULPIRIDE] | Not Active | Not Active | Not Active | Not Active | Not Active | – | Not Active | – | – | – | – |
| CCN(CC)CC(=O)Nc1c(C)cccc1C [LIDOCAINE] | Not Active | Not Active | Not Active | Not Active | Not Active | – | Not Active | – | – | – | – |
| O=C1Nc2ccc(Cl)cc2C(c2ccccc2Cl)=NC1O (stereo not given) [LORAZEPAM] | Not Active | Not Active | Not Active | Not Active | Not Active | – | Not Active | – | – | – | – |
| CO[C@@H]1[C@@H](OC)[C@H](C)[C@@](O)(CC(=O)O)O[C@H]1[C@H](C)[C@H]1O[C@@]2(CC[C@@](C)([C@H]3CC[C@@](C)([C@@H]4O[C@@H]([C@H]5O[C@](C)(O)[C@H](C)C[C@@H]5C)C[C@@H]4O[C@@H]4C[C@H](OC)[C@@H](OC)[C@H](C)O4)O3)O2)C[C@H](O)[C@H]1C [MADURAMICIN ACID] | – | – | Not Active | Not Active | Not Active | – | Not Active | 3340 | 1350 | 1.7 | 0.789 |

| Structure (SMILES) | IC50 [1] | IC50 ([2]; hela) | IC50 (Vasopressin V1a receptor) | IC50 (Nitric oxide synthase 1) | IC50 [3] | IC50 ([4]; read-out: IC50) [nM] | IC50 [4] | IC50 ([1]; read-out: IC50) [nM] | Ki [1] [nM] | IC50 ([2]; read-out: IC50) [nM] | Ki [2] [nM] |
| --- | --- | --- | --- | --- | --- | --- | --- | --- | --- | --- | --- |
| COc1c2occc2cc2ccc(=O)oc12 [METHOXSALEN] | Not Active | Not Active | Not Active | Not Active | Not Active | – | Not Active | – | – | – | – |
| C[C@H]1C[C@@H]2[C@H]([C@@H](O)C[C@@]3(C)[C@H]2CC[C@]3(O)C(=O)CO)[C@@]2(C)C=CC(=O)C=C12 [METHYLPREDNISOLONE] | Not Active | Not Active | Not Active | Not Active | Not Active | – | Not Active | – | – | – | – |
| Cc1cccc(C)c1OCC(C)N (stereo not given) [MEXILETINE] | Not Active | Not Active | Not Active | Not Active | Not Active | – | Not Active | – | – | – | – |
| Nc1cc(N2CCCCC2)nc(N)[n+]1[O-] [MINOXIDIL] | Not Active | Not Active | Not Active | Not Active | Not Active | – | Not Active | – | – | – | – |
| CO[C@H]1/C=C/O[C@@]2(C)Oc3c(C)c(O)c4c(O)c(c(/C=N/N5CCN(C6CCCC6)CC5)c(O)c4c3C2=O)NC(=O)/C(C)=C\C=C\[C@H](C)[C@H](O)[C@@H](C)[C@@H](O)[C@@H](C)[C@H](OC(C)=O)[C@@H]1C [RIFAPENTINE] | Not Active | Not Active | Not Active | Not Active | Not Active | – | Not Active | – | – | – | – |
| CCCCOc1cc(CC2CNC(=O)N2)ccc1OC (stereo not given) [RO-201724] | Not Active | Not Active | Not Active | Not Active | Not Active | – | Not Active | – | – | – | – |
| CC[C@@H](C(=O)[C@@H](C)[C@@H](O)[C@H](C)[C@@H]1O[C@@H]([C@@H](CC)C(=O)O)CC[C@@H]1C)[C@H]1O[C@]2(C=C[C@@H](O)[C@]3(CC[C@@](C)([C@H]4CC[C@](O)(CC)[C@H](C)O4)O3)O2)[C@H](C)C[C@@H]1C [SALINOMYCIN] | Not Active | Not Active | Not Active | Not Active | Not Active | – | Not Active | – | – | – | – |
| O=C(Oc1ccccc1C(=O)O)c1ccccc1O [SALSALATE] | Not Active | Not Active | Not Active | Not Active | Not Active | – | Not Active | – | – | – | – |
| O=C(O)c1cn(-c2ccc(F)cc2)c2cc(N3CCNCC3)c(F)cc2c1=O [SARAFLOXACIN] | Not Active | Not Active | Not Active | Not Active | Not Active | – | Not Active | – | – | – | – |
| CN[C@H]1CC[C@@H](c2ccc(Cl)c(Cl)c2)c2ccccc21 [SERTRALINE] | Not Active | Not Active | Not Active | Not Active | Not Active | – | Not Active | – | – | – | – |
| CC(C)NCC(O)c1ccc(NS(C)(=O)=O)cc1 (stereo not given) [SOTALOL] | Not Active | Not Active | Not Active | Not Active | Not Active | – | Not Active | – | – | – | – |
| O.O.O.O.O.O.[Cl-].[Cl-].[Sr+2] [STRONTIUM CHLORIDE HEXAHYDRATE] | Not Active | Not Active | Not Active | Not Active | Not Active | – | Not Active | – | – | – | – |
| O=C1C(CC[S+]([O-])c2ccccc2)C(=O)N(c2ccccc2)N1c1ccccc1 (stereo not given) [SULFINPYRAZONE] | Not Active | Not Active | Not Active | Not Active | Not Active | – | Not Active | – | – | – | – |
| NC(=O)N1C(=O)/C(=C(\O)c2cccs2)c2cc(Cl)ccc21 [TENIDAP] | Not Active | Not Active | Not Active | Not Active | Not Active | – | Not Active | – | – | – | – |
| COc1cc2nc(N3CCN(C(=O)C4CCCO4)CC3)nc(N)c2cc1OC (stereo not given) [TERAZOSIN] | – | Not Active | Not Active | Not Active | Not Active | – | Not Active | – | – | – | – |
| CN(C/C=C/C#CC(C)(C)C)Cc1cccc2ccccc12 [TERBINAFINE] | Not Active | Not Active | Not Active | Not Active | Not Active | – | Not Active | – | – | – | – |
